Source: publication PMC8080595, “Discovery of a novel RORγ antagonist with skin-restricted exposure for topical treatment of mild to moderate psoriasis” (Scientific Reports, 2021)

What was measured:
[1] = test system: IL-17 secretion from human PBMCs; assay: Human IL-17 production assay using human PBMC; format: cell-based; conditions: cytostim stimulation 72 h
Procedure: To confirm cellular on-target effects, we investigated the inhibition of selected RORγ antagonists on RORγ-regulated IL-17 secretion using human PBMC. Human IL-17-producing cells were readily formed following cytostim stimulation. In human PBMC stimulated with cytostim for 72 h, differentiation of Th17 cells was confirmed by increased secretion of IL-17 (291 pg/mL) in cell culture supernatant compared to basal level of IL-17 (20 pg/mL IL-17 without cytostim stimulation), […] of IL-17 secretion.
Human PBMCs (Zenbio) in TexMACS media were stimulated by cytostim (Miltenyi) for 72 h following the vendor's instruction. Human IL-17A in cell culture supernatant was measured using AlphaLISA human IL-17A Biotin-free detection kit (Perkin Elmer) according to the manufacturer’s protocol.

[2] = Liver microsomal stability, rat; format: in vitro ADME; conditions: liver microsomes, pH 7.4, read-out: Liver microsomal stability, t1/2, Rat
Procedure: The compound was mixed with 0.5 mg/ml human liver microsome (Thermal Fisher) at a final concentration of 1 µM in 100 mM potassium phosphate buffer, pH 7.4. The reactions were initiated by the addition of 1 mM NADPH. Samples in duplicate were incubated at 37 °C with mixing. 100 µL aliquots were transferred after 0, 5, 10, 30, 45, 60 minutes to a new tube with 300 µL acetonitrile, incubated on ice for 30 minutes, centrifuged at 1800×g at 4 °C for 10 minutes. The supernatants were transferred to glass vials subjected to LC/MS analysis. Peak areas were measured to calculate half-life according to the formula t1/2 = − 0.693/slope of linear regression analysis of ln [concentration] versus incubation time. Similar methods were applied to access mouse and rat liver microsomal stability of the compounds.

Dermal PK, BALB/c mouse = format: in vivo; conditions: for Exposure in plasma: 2% in Vaseline, topical
Procedure: The dermal PK studies of Compound 1 in Vaseline were performed in dorsal skin of female C57BL/6 and male BALB/c mice via topical route. The skin (1.5 cm × 2 cm) was shaved one day prior to the dosing. At tissue collecting time point, the skin surface was decontaminated (twice with hand soap, twice with water, alternatively, and dried with tissue swabs). Stratum corneum is removed with tape strips for five times. The tissues were homogenized for PK analyses of Compound 1 by LC/MS.

[3] = test system: IMQ-induced psoriasis-like skin inflammation mice; assay: IMQ-induced psoriasis-like skin inflammation model, topical treatment; format: in vivo, BALB/c mice
Procedure: At the end of the study, the mouse plasma and diseased back skin were collected 3 h after topical application for PK analysis.
Psoriasis was induced by topical application of IMQ cream on the shaved dorsal skin as described by Leslie van der Fits et al.[18]. SHR168442 in Vaseline (n = 10 per group) was treated once a day (QD) from 3 days prior to day 1, and then twice a day (BID) from day 1 to day 6. The animal was sacrificed at 3 h after the first dose in the morning of day 7. Erythema, scaling, and thickness of the back skin were scored independently daily on a scale from 0 to 4. Blood and back skin tissues from the study were collected at 3 h (n = 4) post dosing in the morning of […]. The plasma and skin tissues after tape stripping were analyzed for Compound 1 as described above. The in-life portion of the study was carried out at Washington Biotechnology (Baltimore, MD). The housing conditions and in-life procedures were approved by IACUC. The experiments were conducted in accordance with the Guiding Principles for the Care and Use of Laboratory Animals and complied with the ARRIVE guidelines.

[4] = test system: IL-23-induced psoriasis-like skin inflammation mice; assay: IL-23-induced psoriasis-like skin inflammation mouse model, topical treatment; format: in vivo; conditions: for IL17 / IL-6 / TNFα / Thickness of the back skin: day 8, Mean ± SEM, n = 10
Procedure: Psoriasis was induced by intradermal injection of IL-23 on mouse skin as described by Rizzo et al.[19]. Three days later after shaving (day 1), two injections of IL-23 (0.5 µg protein per mouse) were performed on both sides of the dorsal skin (except naïve group) for 8 days. SHR168442 in Vaseline was topically applied daily starting three day before IL-23 injections, and then twice a day starting on the day of IL-23 injections. The mice were weighed daily, and the skin were scored daily on a scale from 0 to 4. At day 8, the skin thickness was measured in live mice with a caliper and the animal was sacrificed 3 h after the first topical application. The in-life portion of the study was carried out at Nanjing University (Nanjing, China). The experimental protocol used in this study was approved by IACUC in Nanjing, China. The experiments were conducted in accordance with the Guiding Principles for the Care and Use of Laboratory Animals and complied with the ARRIVE guidelines.
IL-17A, IL-6 and TNFα were determined in plasma collected at day 8 using a cytometric bead array (BD Biosciences) following the vendor's instruction.

GABAA = assay: SAFETYscan47 Ion Channel; format: cell-based; conditions: 3 µM
Procedure: (§1) To further profile any off-target activity, we counter-screened SHR168442 in SAFETYscan47 panel, compiled by DiscoverX based on the recommendation by major pharmaceutical companies. SHR168442 was screened at 3 µM in duplicates.

hERG = biological target: T1, hERG (Homo sapiens, UniProt Q12809); assay: SAFETYscan47 Ion Channel; format: cell-based; conditions: Blocker; 3 µM
T1 construct: purchased DiscoverX (Eurofins) SAFETYscan47
Procedure: as §1

T1 sequence (Q12809 whole entry): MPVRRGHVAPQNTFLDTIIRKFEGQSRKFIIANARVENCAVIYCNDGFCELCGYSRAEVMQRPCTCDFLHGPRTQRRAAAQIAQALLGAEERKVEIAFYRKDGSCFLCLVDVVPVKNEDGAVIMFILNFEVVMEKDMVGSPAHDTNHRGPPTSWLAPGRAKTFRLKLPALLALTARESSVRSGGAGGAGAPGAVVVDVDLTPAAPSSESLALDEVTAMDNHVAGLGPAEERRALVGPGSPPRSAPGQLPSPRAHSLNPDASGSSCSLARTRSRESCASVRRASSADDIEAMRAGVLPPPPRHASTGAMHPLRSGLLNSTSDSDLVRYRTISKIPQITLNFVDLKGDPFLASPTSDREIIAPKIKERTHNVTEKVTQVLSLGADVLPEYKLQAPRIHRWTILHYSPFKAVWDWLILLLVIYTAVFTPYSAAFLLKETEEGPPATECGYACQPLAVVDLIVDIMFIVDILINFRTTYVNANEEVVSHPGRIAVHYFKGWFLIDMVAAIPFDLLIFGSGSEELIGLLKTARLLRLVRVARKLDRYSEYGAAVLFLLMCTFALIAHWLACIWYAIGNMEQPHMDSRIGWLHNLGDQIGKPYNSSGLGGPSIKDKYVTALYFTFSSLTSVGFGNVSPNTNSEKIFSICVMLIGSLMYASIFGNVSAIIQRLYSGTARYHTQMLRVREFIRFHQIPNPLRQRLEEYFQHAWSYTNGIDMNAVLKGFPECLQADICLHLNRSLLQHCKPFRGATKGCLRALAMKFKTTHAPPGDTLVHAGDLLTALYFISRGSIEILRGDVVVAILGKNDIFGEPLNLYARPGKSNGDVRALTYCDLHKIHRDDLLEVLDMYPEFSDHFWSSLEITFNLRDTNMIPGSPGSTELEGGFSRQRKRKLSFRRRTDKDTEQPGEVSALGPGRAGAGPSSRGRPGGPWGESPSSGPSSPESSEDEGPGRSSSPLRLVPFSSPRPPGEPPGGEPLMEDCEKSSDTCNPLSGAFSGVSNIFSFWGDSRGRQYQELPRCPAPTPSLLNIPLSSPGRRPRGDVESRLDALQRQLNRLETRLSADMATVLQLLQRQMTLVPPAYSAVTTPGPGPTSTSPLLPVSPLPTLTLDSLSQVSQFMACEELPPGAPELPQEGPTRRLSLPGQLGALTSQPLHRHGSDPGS

CCS(=O)(=O)c1ccc([C@H](CCO)c2nc3c(Cl)c(N4CCC(F)(F)CC4)c(Cl)cc3[nH]2)cc1 [SHR168442, (S)-3-(4,6-dichloro-5-(4,4-difluoropiperidin-1-yl)-1H-benzo[d]imidazol-2-yl)-3-(4-(ethylsulfonyl)phenyl)propan-1-ol]
EC50 [1]: 20 ± 6 nM
IC50 [1]: 20 nM
half-life at 1 µM [2]: 8.6 min
Exposure in plasma (Dermal PK, BALB/c mouse; 3 h): blq (below limit of quantitation (< 6 ng/mL))
Exposure in plasma (Dermal PK, BALB/c mouse; 6 h): blq (below limit of quantitation (< 6 ng/mL))
concentration at 3 h (Dermal PK, BALB/c mouse; male, BALB/c, mouse, in vivo): 2460 ng/g
concentration at 6 h (Dermal PK, BALB/c mouse; male, BALB/c, mouse, in vivo): 4390 ng/g
cumulative scores (scaling, erythema, thickness) ([3]; 2%, 4% and 8% in Vaseline topical): clear dose-dependent reduction
scores of erythema ([3]; 4% and 8% topical, day 6, versus vehicle control): significantly reduced
score of scaling ([3]; 8% in Vaseline topical, days 4 to 6, scale 0 to 4): < 1.0
exposures in diseased skin and plasma ([3]; 3 h after topical application, all treatments): high in skin and low in plasma
body weight ([3]; all treatment groups): no significant body weight loss
IL17 ([4]; 0.5% in Vaseline topical): 190 ± 28 fg/mL
IL-6 ([4]; 0.5% in Vaseline topical): 124 ± 32 fg/mL
TNFα ([4]; 0.5% in Vaseline topical): 5495 ± 837 fg/mL
Thickness of the back skin ([4]; 0.5% in Vaseline topical): 0.452 ± 0.020 mm
clinical scores ([4]; 0.5%, 2%, 8% in Vaseline topical, scale 0 to 4): reduce clinical scores in a dose-dependent manner
IL17 ([4]; 2% in Vaseline topical): 172 ± 38 fg/mL
IL-6 ([4]; 2% in Vaseline topical): 112 ± 43 fg/mL
TNFα ([4]; 2% in Vaseline topical): 4284 ± 804 fg/mL
Thickness of the back skin ([4]; 2% in Vaseline topical): 0.436 ± 0.019 mm
IL17 ([4]; 8% in Vaseline topical): 185 ± 35 fg/mL
IL-6 ([4]; 8% in Vaseline topical): 123 ± 37 fg/mL
TNFα ([4]; 8% in Vaseline topical): 3380 ± 491 fg/mL
Thickness of the back skin ([4]; 8% in Vaseline topical): 0.330 ± 0.015 mm
reduction of skin thickness ([4]; 8% topical, relative to vehicle and naïve group): 97%
body weight ([4]; all treatment groups): no significant body weight loss
% Response Average (GABAA; Blocker): 7.4%
% Response Replicate 1 (GABAA; Blocker): 4.6%
% Response Replicate 2 (GABAA; Blocker): 10.1%
% Response Average (GABAA; Opener): 2.5%
% Response Replicate 1 (GABAA; Opener): 3.2%
% Response Replicate 2 (GABAA; Opener): 1.9%
% Response Average (hERG): 4.9%
% Response Replicate 1 (hERG): 6.5%
% Response Replicate 2 (hERG): 3.2%
